Results on 54 compounds are retold here after US12011444B2, “N-substituted indole derivatives as PGE2 receptor modulators” (Idorsia Pharmaceuticals Ltd, priority 2015, dated 2024).

The target of test [1] is EP4 (Homo sapiens (Human), UniProt P35408). Nature of the test: hEP4 cAMP assay (BT549 breast cancer cells, HTRF cAMP). The class given is cell-based. As to conditions: antagonistic activity; mean values where measured multiple times. The protocol:
Plate is pre-incubated 45 minutes at room temperature. Subsequently, 2.5 microliters of PGE2 (final conc. 6 nM) are transferred into the assay plate. Plate is incubated 30 minutes at room temperature.
For orientation: cAMP levels reflect the balance of adenylyl cyclase and phosphodiesterase activity.

For test [2], the target named is EP2 (Homo sapiens (Human), UniProt P43116).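 Further: antagonism of PGE2-stimulated cAMP accumulation in SF295 human glioblastoma cells with endogenous EP2, cAMP read by HTRF, expressed relative to DMSO control.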

By IC50 is commonly meant the concentration needed to halve the response being measured. A low value points to greater potency in that assay.

Chain of EP2 (P43116 whole entry): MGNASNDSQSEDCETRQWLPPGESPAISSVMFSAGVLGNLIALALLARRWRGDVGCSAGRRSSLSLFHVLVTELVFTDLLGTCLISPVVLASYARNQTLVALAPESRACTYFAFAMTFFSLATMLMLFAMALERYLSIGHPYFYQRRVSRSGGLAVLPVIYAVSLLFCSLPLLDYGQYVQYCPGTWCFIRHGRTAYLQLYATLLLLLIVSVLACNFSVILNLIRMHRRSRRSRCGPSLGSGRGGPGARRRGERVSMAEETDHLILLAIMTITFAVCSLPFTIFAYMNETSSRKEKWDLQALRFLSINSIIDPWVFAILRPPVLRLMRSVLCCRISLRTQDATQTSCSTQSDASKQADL
Chain of EP4 (P35408 whole entry): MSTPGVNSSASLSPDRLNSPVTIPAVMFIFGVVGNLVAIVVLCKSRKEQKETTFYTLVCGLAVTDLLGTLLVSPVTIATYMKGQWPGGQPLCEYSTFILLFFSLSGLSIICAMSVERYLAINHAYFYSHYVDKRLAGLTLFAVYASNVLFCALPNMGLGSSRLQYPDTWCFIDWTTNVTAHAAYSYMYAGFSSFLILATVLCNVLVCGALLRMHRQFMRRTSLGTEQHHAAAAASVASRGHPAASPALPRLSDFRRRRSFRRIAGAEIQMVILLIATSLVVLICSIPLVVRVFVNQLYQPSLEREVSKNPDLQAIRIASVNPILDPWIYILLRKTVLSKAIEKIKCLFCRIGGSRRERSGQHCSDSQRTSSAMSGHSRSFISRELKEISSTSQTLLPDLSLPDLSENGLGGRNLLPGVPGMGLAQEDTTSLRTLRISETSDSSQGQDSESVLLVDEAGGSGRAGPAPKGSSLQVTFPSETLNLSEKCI

In the case of `CCNc1cc(-c2cc(NCCn3c(C)cc4c(OC)ccc(F)c43)ncn2)ccc1C(=O)O` [compound 397], the IC50 is 20 nM in test [1] and 1 nM in test [2].

Take `CCNc1cc(-c2cc(NCCn3c(C)cc4c(OC)cccc43)ncn2)cc(F)c1C(=O)O` [compound 398]: the half-maximal inhibitory concentration (IC50) in test [1] worked out at 178 nM; in test [2], 3 nM.

As for `CCNc1cc(-c2cc(NCCn3c(C)cc4c(F)ccc(OC)c43)ncn2)ccc1C(=O)O` [compound 399], the values for the IC50 in test [1] and in test [2] were 483 nM and 17 nM, respectively.

Regarding `CCCOc1cc(-c2cc(NCCn3c(C)cc4c(OC)cccc43)ncn2)ccc1C(=O)O` [compound 400], the IC50 in test [1] was determined as 418 nM; in test [2] it was 6 nM.

With `COc1cc(-c2cc(NCCn3c(C)cc4c(OC)ccc(F)c43)ncn2)cc(Cl)c1C(=O)O` [compound 401], the IC50 was found to be 182 nM in test [1] and 19 nM in test [2].

As for `CCOc1cc(-c2cc(NCCn3c(C)cc4c(OC)cc(Cl)cc43)ncn2)ccc1C(=O)O` [compound 402], the IC50 in test [1] was 159 nM; in test [2] it was 10 nM.

In the case of `CCOc1cc(-c2cc(NCCn3c(C)cc4c(OC)cc(F)cc43)ncn2)ccc1C(=O)O` [compound 403], the IC50 was 128 nM in test [1] and 20 nM in test [2].

Turning to `COc1cc(-c2cc(NCCn3c(C)cc4c(OC)ccc(Cl)c43)ncn2)cc(C)c1C(=O)O` [compound 404], the IC50 in test [1] amounted to 448 nM; in test [2] it was 96 nM.

Turning to `CCOc1cc(-c2cc(NCCn3c(C)cc4c(OC)ccc(Cl)c43)ncn2)ccc1C(=O)O` [compound 405], the values for the IC50 in test [1] and in test [2] were 356 nM and 18 nM, respectively.

With `COc1cc(-c2cc(NCCn3c(C)cc4c(OC)ccc(F)c43)ncn2)cc(C)c1C(=O)O` [compound 406], the IC50 in test [1] stood at 266 nM; in test [2], 47 nM.

In the case of `CCOc1cc(-c2cc(NCCn3c(C)cc4c(OC)cccc43)ncn2)cc(F)c1C(=O)O` [compound 407], the IC50 worked out at 636 nM in test [1] and 15 nM in test [2].

Regarding `CCOc1cc(-c2cc(NCCn3c(C)cc4c(OC)cc(F)c(F)c43)ncn2)sc1C(=O)O` [compound 408], the values for the IC50 in test [1] and in test [2] were 3 nM and 4 nM, respectively.

Turning to `CCOc1cc(-c2cc(NCCn3c(C)cc4c(OC)c(Cl)cc(F)c43)ncn2)sc1C(=O)O` [compound 409], the concentration for half-maximal inhibition (IC50) in test [1] was 146 nM; in test [2], 345 nM.

For `Cc1ccc(Cl)c2c1cc(C)n2CCNc1cc(-c2ccc(C(=O)O)c(SC(C)C)c2)ncn1` [compound 410], the IC50 was 390 nM in test [1] and 51 nM in test [2].

On to `Cc1cc2c(F)c(F)ccc2n1CCNc1cc(-c2ccc(C(=O)O)c(CC(C)C)c2)ncn1` [compound 411], for which the IC50 was found to be 443 nM in test [1] and 20 nM in test [2].

`CCCc1cc(-c2cc(NCCn3c(C)cc4c(C)cc(F)cc43)ncn2)cc(Cl)c1C(=O)O` [compound 412]: the concentration for half-maximal inhibition (IC50) in test [1] was found to be 79 nM; in test [2], 36 nM.

Consider `CCCc1cc(-c2cc(NCCn3c(C)cc4c(C)ccc(F)c43)ncn2)cc(Cl)c1C(=O)O` [compound 413], for which the results for the IC50 in test [1] and in test [2] were 55 nM and 29 nM, respectively.

On to `CCCc1cc(-c2cc(NCCn3c(C)cc4cc(C)cc(F)c43)ncn2)cc(Cl)c1C(=O)O` [compound 414], for which the IC50 in test [1] is 199 nM; in test [2], 35 nM.

With `CCCc1cc(-c2cc(NCCn3c(C)cc4c(C)cc(F)cc43)ncn2)cc(F)c1C(=O)O` [compound 415], the IC50 was found to be 153 nM in test [1] and 53 nM in test [2].

Turning to `CCCc1cc(-c2cc(NCCn3c(C)cc4c(C)ccc(F)c43)ncn2)cc(F)c1C(=O)O` [compound 416], the IC50 in test [1] is 99 nM; in test [2], 14 nM.

For the compound `CCCc1cc(-c2cc(NCCn3c(C)cc4cc(C)cc(F)c43)ncn2)cc(F)c1C(=O)O` [compound 417], the values for the IC50 in test [1] and in test [2] were 396 nM and 28 nM, respectively.

As to `Cc1cc2c(Cl)cc(Cl)cc2n1CCNc1cc(-c2ccc(C(=O)O)c(CC(C)C)c2)ncn1` [compound 418], the figures for the IC50 in test [1] and in test [2] were 691 nM and 74 nM, respectively.

Turning to `Cc1cc2c(Cl)cc(F)cc2n1CCNc1cc(-c2ccc(C(=O)O)c(CC(C)C)c2)ncn1` [compound 419], the figures for the half-inhibitory concentration (IC50) in test [1] and in test [2] were 403 nM and 90 nM, respectively.

`Cc1cc(F)c(F)c2c1cc(C)n2CCNc1cc(-c2cc(C(F)(F)F)c(C(=O)O)s2)ncn1` [compound 420]: the values for the IC50 in test [1] and in test [2] were 93 nM and 95 nM, respectively.

For `Cc1cc(Cl)cc2c1cc(C)n2CCNc1cc(-c2ccc(C(=O)O)c(CC(C)C)c2)ncn1` [compound 421], the IC50 in test [1] was determined as 342 nM; in test [2] it was 60 nM.

Take `Cc1cc(F)cc2c1cc(C)n2CCNc1cc(-c2ccc(C(=O)O)c(CC(C)C)c2)ncn1` [compound 422]: the values for the IC50 in test [1] and in test [2] were 148 nM and 34 nM, respectively.

As to `Cc1nc(NCCn2c(C)cc3c(C)cc(F)cc32)cc(-c2cc(C(F)(F)F)c(C(=O)O)s2)n1` [compound 423], the IC50 in test [1] amounted to 35 nM; in test [2] it was 44 nM.

As to `Cc1cc2c(Cl)ccc(Cl)c2n1CCNc1cc(-c2ccc(C(=O)O)c(SC(C)C)c2)ncn1` [compound 424], the IC50 came out at 257 nM in test [1] and 31 nM in test [2].

As to `CCCc1cc(-c2cc(NCCn3c(C)cc4cc(Cl)cc(F)c43)ncn2)cc(F)c1C(=O)O` [compound 425], the IC50 in test [1] amounted to 521 nM; in test [2], 73 nM.

As for `CCCc1cc(-c2cc(NCCn3c(C)cc4cc(F)cc(Cl)c43)ncn2)cc(Cl)c1C(=O)O` [compound 426], the IC50 was 759 nM in test [1] and 17 nM in test [2].

Take `CCCc1cc(-c2cc(NCCn3c(C)cc4cc(Cl)cc(F)c43)ncn2)cc(Cl)c1C(=O)O` [compound 427]: the concentration for half-maximal inhibition (IC50) in test [1] turned out to be 240 nM; in test [2], 85 nM.

On to `COc1cccc2c1cc(C)n2CCNc1cc(-c2ccc(C(=O)O)c(CC(C)C)c2)ncn1` [compound 428], for which the IC50 stood at 164 nM in test [1] and 11 nM in test [2].

For the compound `CCc1cc(-c2cc(NCCn3c(C)cc4c(OC)ccc(Cl)c43)ncn2)cc(F)c1C(=O)O` [compound 429], the IC50 in test [1] amounted to 775 nM; in test [2], 25 nM.

For `CCOc1cc(-c2cc(NCCn3c(C)cc4c(C)c(F)cc(F)c43)ncn2)ccc1C(=O)O` [compound 430], the IC50 in test [1] came to 88 nM; in test [2], 9 nM.

Turning to `CCOc1cc(-c2cc(NCCn3c(C)cc4c(C)cc(F)c(F)c43)ncn2)ccc1C(=O)O` [compound 431], the IC50 amounted to 191 nM in test [1] and 51 nM in test [2].

For `CCOc1cc(-c2cc(NCCn3c(C)cc4c(C)cc(F)cc43)ncn2)cc(Cl)c1C(=O)O` [compound 432], the concentration for half-maximal inhibition (IC50) in test [1] came out at 117 nM; in test [2] it was 21 nM.

`CCOc1cc(-c2cc(NCCn3c(C)cc4c(C)ccc(F)c43)ncn2)cc(Cl)c1C(=O)O` [compound 433]: the IC50 was 108 nM in test [1] and 61 nM in test [2].

Turning to `CCOc1cc(-c2cc(NCCn3c(C)cc4c(C)ccc(F)c43)ncn2)cc(F)c1C(=O)O` [compound 435], the figures for the half-inhibitory concentration (IC50) in test [1] and in test [2] were 159 nM and 13 nM, respectively.

Regarding `CCOc1cc(-c2cc(NCCn3c(C)cc4cc(C)cc(F)c43)ncn2)cc(F)c1C(=O)O` [compound 436], the results for the 50% inhibitory concentration (IC50) in test [1] and in test [2] were 787 nM and 46 nM, respectively.

`CCc1cc(-c2cc(NCCn3c(C)cc4c(OC)ccc(F)c43)ncn2)cc(F)c1C(=O)O` [compound 437]: the results for the IC50 in test [1] and in test [2] were 201 nM and 15 nM, respectively.

Take `CCc1cc(-c2cc(NCCn3c(C)cc4c(OC)cc(F)cc43)ncn2)cc(Cl)c1C(=O)O` [compound 438]: the IC50 came out at 106 nM in test [1] and 64 nM in test [2].

Regarding `CCCOc1cc(-c2cc(NCCn3c(C)cc4c(C)cc(F)cc43)ncn2)ccc1C(=O)O` [compound 439], the values for the IC50 in test [1] and in test [2] were 272 nM and 19 nM, respectively.

In the case of `CCOc1cc(-c2cc(NCCn3c(C)cc4c(C)cc(F)cc43)nc(C)n2)ccc1C(=O)O` [compound 440], the 50% inhibitory concentration (IC50) came to 905 nM in test [1] and 57 nM in test [2].

In the case of `CCCOc1cc(-c2cc(NCCn3c(C)cc4c(C)ccc(F)c43)ncn2)ccc1C(=O)O` [compound 441], the IC50 amounted to 113 nM in test [1] and 11 nM in test [2].

Turning to `CCCc1cc(-c2cc(NCCn3c(C)cc4c(OC)ccc(Cl)c43)ncn2)ccc1C(=O)O` [compound 442], the half-maximal inhibitory concentration (IC50) in test [1] is 234 nM; in test [2], 12 nM.

For the compound `CCCc1cc(-c2cc(NCCn3c(C)cc4cc(OC)cc(F)c43)ncn2)ccc1C(=O)O` [compound 443], the half-inhibitory concentration (IC50) in test [1] worked out at 487 nM; in test [2], 175 nM.

For `CCCc1cc(-c2cc(NCCn3c(C)cc4c(OC)cccc43)ncn2)cc(Cl)c1C(=O)O` [compound 444], the IC50 in test [1] was determined as 94 nM; in test [2], 7 nM.

Take `CCCc1cc(-c2cc(NCCn3c(C)cc4c(OC)cccc43)ncn2)cc(F)c1C(=O)O` [compound 445]: the figures for the IC50 in test [1] and in test [2] were 235 nM and 5 nM, respectively.

Turning to `COc1ccc(F)c2c1cc(C)n2CCNc1cc(-c2cc(C(F)(F)F)c(C(=O)O)s2)ncn1` [compound 446], the IC50 in test [1] was found to be 8 nM; in test [2] it was 16 nM.

Take `COc1cc(F)cc2c1cc(C)n2CCNc1cc(-c2cc(C(F)(F)F)c(C(=O)O)s2)ncn1` [compound 447]: the IC50 came to 27 nM in test [1] and 28 nM in test [2].

Take `COc1c(F)cc(Cl)c2c1cc(C)n2CCNc1cc(-c2ccc(C(=O)O)c(SC)c2)ncn1` [compound 448]: the IC50 is 508 nM in test [1] and 46 nM in test [2].

As to `CCOc1cc(-c2cc(NCCn3c(C)cc4c(F)c(F)cc(F)c43)ncn2)ccc1C(=O)O` [compound 449], the results for the IC50 in test [1] and in test [2] were 242 nM and 4 nM, respectively.

With `CCOc1cc(-c2cc(NCCn3c(C)cc4c(Cl)ccc(F)c43)ncn2)cc(Cl)c1C(=O)O` [compound 450], the IC50 in test [1] came out at 117 nM; in test [2], 9 nM.

On to `CCNc1cc(-c2cc(NCCn3c(C)cc4c(C#N)ccc(F)c43)ncn2)ccc1C(=O)O` [compound 451], for which the half-maximal inhibitory concentration (IC50) in test [1] stood at 240 nM; in test [2], 2 nM.
